Experimental data published in patent US9216999B2, “Substituted pyrrolo[2,3-h][1,6]naphthyridines and compositions thereof as JAK inhibitors” (priority 2011, dated 2015).
Like-named read-outs stand apart in the source and are kept apart here.

How the values were obtained:
Format in all cases: biochemical
JAK1 = JAK1 (Homo sapiens (Human), UniProt P23458); assay: Enzyme assay (Assay Example^a 1), JAK1; conditions: ATP 100 μM
JAK2 = JAK2 (Homo sapiens (Human), UniProt O60674); assay: Enzyme assay (Assay Example^a 1), JAK2; conditions: ATP 100 μM
JAK3 = JAK3 (Homo sapiens (Human), UniProt P52333); assay: Enzyme assay (Assay Example^a 1), JAK3
Tyk2 = Tyk2 (Homo sapiens (Human), UniProt P29597); assay: Enzyme assay (Assay Example^a 1), Tyk2; conditions: ATP 100 μM
Tyk2, sequence (P29597 whole entry): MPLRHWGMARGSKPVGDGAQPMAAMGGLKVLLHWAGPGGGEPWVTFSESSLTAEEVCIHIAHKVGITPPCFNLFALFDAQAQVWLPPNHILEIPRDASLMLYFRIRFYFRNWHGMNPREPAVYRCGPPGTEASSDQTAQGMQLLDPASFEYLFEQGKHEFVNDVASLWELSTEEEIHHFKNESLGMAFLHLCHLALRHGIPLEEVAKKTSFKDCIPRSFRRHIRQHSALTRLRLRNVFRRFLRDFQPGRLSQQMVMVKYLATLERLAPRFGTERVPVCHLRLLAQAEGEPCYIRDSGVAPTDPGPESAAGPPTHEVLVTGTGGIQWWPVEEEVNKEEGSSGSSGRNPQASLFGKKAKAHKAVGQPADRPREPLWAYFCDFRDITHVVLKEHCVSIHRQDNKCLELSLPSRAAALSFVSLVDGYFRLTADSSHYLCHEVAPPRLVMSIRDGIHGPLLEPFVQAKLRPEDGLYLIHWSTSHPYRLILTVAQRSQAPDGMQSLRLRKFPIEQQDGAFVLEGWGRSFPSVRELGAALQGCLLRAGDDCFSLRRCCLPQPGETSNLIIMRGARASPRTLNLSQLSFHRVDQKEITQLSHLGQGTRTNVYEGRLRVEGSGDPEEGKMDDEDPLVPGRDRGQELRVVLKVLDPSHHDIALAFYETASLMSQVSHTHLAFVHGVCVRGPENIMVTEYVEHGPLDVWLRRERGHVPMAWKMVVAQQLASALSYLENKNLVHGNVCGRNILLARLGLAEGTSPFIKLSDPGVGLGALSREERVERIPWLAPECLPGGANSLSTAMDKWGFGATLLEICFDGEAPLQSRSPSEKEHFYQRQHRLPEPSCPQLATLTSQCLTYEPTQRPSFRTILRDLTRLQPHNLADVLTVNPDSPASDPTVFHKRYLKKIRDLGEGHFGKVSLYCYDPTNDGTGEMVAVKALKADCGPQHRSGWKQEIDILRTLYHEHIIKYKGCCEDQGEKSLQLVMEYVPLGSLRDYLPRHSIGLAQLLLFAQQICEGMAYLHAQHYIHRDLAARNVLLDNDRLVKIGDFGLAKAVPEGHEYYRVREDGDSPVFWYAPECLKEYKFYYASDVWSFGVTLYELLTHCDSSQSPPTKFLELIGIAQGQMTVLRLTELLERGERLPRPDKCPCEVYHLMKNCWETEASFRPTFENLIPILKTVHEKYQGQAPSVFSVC

JAK3, sequence (P52333 whole entry): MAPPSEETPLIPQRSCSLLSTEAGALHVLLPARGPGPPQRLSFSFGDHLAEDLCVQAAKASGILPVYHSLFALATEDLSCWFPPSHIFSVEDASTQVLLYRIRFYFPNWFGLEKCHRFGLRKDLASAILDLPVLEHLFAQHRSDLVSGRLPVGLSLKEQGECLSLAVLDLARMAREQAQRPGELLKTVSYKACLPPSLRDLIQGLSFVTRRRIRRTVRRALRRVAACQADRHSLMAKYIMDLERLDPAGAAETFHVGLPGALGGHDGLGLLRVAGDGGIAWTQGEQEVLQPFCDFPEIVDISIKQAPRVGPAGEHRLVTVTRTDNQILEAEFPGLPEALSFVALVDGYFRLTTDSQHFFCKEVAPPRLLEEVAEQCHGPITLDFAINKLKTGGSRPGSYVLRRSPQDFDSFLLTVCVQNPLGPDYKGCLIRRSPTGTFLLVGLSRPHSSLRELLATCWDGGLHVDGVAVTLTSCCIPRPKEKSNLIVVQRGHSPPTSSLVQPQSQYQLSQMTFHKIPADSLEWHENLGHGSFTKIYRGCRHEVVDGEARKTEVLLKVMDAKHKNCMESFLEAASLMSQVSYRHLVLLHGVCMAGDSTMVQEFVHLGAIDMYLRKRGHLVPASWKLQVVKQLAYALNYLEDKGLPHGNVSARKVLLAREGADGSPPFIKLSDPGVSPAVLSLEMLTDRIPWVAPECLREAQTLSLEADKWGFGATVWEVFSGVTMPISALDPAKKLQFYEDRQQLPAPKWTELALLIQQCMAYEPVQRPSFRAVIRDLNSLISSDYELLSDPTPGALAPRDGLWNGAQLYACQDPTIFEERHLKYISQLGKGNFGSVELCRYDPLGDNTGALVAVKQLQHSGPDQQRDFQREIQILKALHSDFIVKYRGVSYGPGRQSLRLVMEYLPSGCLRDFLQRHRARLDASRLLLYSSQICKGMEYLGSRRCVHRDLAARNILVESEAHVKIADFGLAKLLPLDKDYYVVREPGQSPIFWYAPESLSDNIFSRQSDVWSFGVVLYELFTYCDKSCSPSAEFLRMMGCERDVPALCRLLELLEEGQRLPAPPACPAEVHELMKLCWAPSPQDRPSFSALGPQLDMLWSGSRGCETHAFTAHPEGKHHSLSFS

SMILES | IC50 (JAK1; Table^a 154) [µM] | IC50 (JAK2; Table^a 154) [µM] | IC50 (JAK3; ATP 100 μM, Table^a 154) [µM] | IC50 (Tyk2; Table^a 154) [µM] | IC50 (JAK1) [µM] | IC50 (JAK2) [µM] | IC50 (JAK3) [µM] | IC50 (Tyk2) [µM] | IC50 (JAK3; ATP 100 μM) [µM]
FC(F)(Br)CNC[C@H]1CC[C@H](c2nnn3cnc4[nH]ccc4c23)CC1 [compound 269, N-{[trans-4-(7H-pyrrolo[3,2-e][1,2,3]triazolo[1,5-c]pyrimidin-1-yl)cyclohexyl]methyl}-2-bromo-2,2-difluoroethanamine] |  |  |  |  | 0.0013 | 0.012 | 0.057 | 0.1 | 
FC1(F)Oc2cccc(CN3CCC(c4nnn5cnc6[nH]ccc6c45)CC3)c2O1 [compound 229, 1-{1-[(2,2-difluorobenzo[d][1,3]dioxol-4-yl)methyl]piperidin-4-yl}-7H-pyrrolo[3,2-e][1,2,3]triazolo[1,5-c]pyrimidine] |  |  |  |  | 0.039 | 0.087 |  | > 1 | > 1
CC(C#N)=C1CCC(c2nnn3cnc4[nH]ccc4c23)CC1 (stereo not shown) [compound 437, 2-[4-(7H-pyrrolo[3,2-e][1,2,3]triazolo[1,5-c]pyrimidin-1-yl)cyclohexylidene]propanenitrile] |  |  |  |  | 0.02 | 0.055 |  | 0.45 | 0.57
Fc1cc(C(F)(F)F)cc(F)c1CN1CCC(c2nnn3cnc4[nH]ccc4c23)CC1 [compound 224, 1-{1-[2,6-difluoro-4-(trifluoromethyl)benzyl]piperidin-4-yl}-7H-pyrrolo[3,2-e][1,2,3]triazolo[1,5-c]pyrimidine] |  |  |  |  | 0.002 | 0.012 |  | 0.95 | 0.43
OCCN1CCN(C[C@H]2CC[C@H](c3nnn4cnc5[nH]ccc5c34)CC2)CC1 [compound 315, 2-(4-{[trans-4-(7H-pyrrolo[3,2-e][1,2,3]triazolo[1,5-c]pyrimidin-1-yl)cyclohexyl]methyl}piperazin-1-yl)ethanol] |  |  |  |  | 0.01 | 0.2 |  | 0.53 | > 1
c1cc2c(ncn3nnc([C@H]4CC[C@H](CN5CCSC5)CC4)c23)[nH]1 [compound 254, 3-{[trans-4-(7H-pyrrolo[3,2-e][1,2,3]triazolo[1,5-c]pyrimidin-1-yl)cyclohexyl]methyl}thiazolidine] |  |  |  |  | 0.0071 | 0.024 |  | 0.16 | 0.53
CS(=O)(=O)NC[C@H]1CC[C@H](c2nnn3cnc4[nH]ccc4c23)CC1 [compound 427, N-{[trans-4-(7H-Pyrrolo[3,2-e][1,2,3]triazolo[1,5-c]pyrimidin-1-yl)cyclohexyl]methyl}methanesulfonamide] |  |  |  |  | 0.00016 | 0.0012 |  | 0.016 | 0.03
O[C@@H]1Cc2ccccc2[C@@H]1NC1CCC(c2nnn3cnc4[nH]ccc4c23)CC1 (mixture of isomers) [compound 379, (1S,2R)-1-{[4-(7H-pyrrolo[3,2-e][1,2,3]triazolo[1,5-c]pyrimidin-1-yl)cyclohexyl]amino}-2,3-dihydro-1H-inden-2-ol] |  |  |  |  | 0.013 | 0.11 |  | 0.29 | 0.66
OC1CN(C[C@H]2CC[C@@H](c3nnn4cnc5[nH]ccc5c34)CC2)C1 [compound 403, 1-{[cis-4-(7H-Pyrrolo[3,2-e][1,2,3]triazolo[1,5-c]pyrimidin-1-yl)cyclohexyl]methyl}azetidin-3-ol] |  |  |  |  | 0.04 | 0.3 |  | 0.81 | 0.44
O=S(=O)(C[C@H]1CC[C@H](c2nnn3cnc4[nH]ccc4c23)CC1)C1CC1 [compound 366, 1-{trans-4-[(cyclopropylsulfonyl)methyl]cyclohexyl}-7H-pyrrolo[3,2-e][1,2,3]triazolo[1,5-c]pyrimidine] |  |  |  |  | 0.011 | 0.028 |  | 0.26 | 0.28
CC(C#N)[C@H]1CC[C@@H](c2nnn3cnc4[nH]ccc4c23)CC1 (stereo partly drawn) [439a, 2-[cis-4-(7H-Pyrrolo[3,2-e][1,2,3]triazolo[1,5-c]pyrimidin-1-yl)cyclohexyl]propanenitrile] |  |  |  |  | 0.13 | 0.34 |  | > 1 | > 1
N#Cc1cc(CN2CCC(c3nnn4cnc5[nH]ccc5c34)CC2)ccc1C(F)(F)F [compound 243, 5-{[4-(7H-pyrrolo[3,2-e][1,2,3]triazolo[1,5-c]pyrimidin-1-yl)piperidin-1-yl]methyl}-2-(trifluoromethyl)benzonitrile] |  |  |  |  | 0.044 | 0.29 |  | > 1 | > 1
O=S(=O)(O)C[C@H]1CC[C@H](c2nnn3cnc4[nH]ccc4c23)CC1 [compound 416, [trans-4-(7H-Pyrrolo[3,2-e][1,2,3]triazolo[1,5-c]pyrimidin-1-yl)cyclohexyl]methanesulfonic acid] |  |  |  |  | 0.029 | 0.047 |  | 0.68 | > 1
O=C(NC1CC1)[C@H]1CC[C@H](c2nnn3cnc4[nH]ccc4c23)CC1 [compound 359, trans-N-cyclopropyl-4-(7H-pyrrolo[3,2-e][1,2,3]triazolo[1,5-c]pyrimidin-1-yl)cyclohexanecarboxamide] |  |  |  |  | 0.042 | 0.22 |  | 0.56 | > 1
N#Cc1ccc(N2CCC(c3nnn4cnc5[nH]ccc5c34)CC2)cc1 [compound 376, 4-[4-(7H-Pyrrolo[3,2-e][1,2,3]triazolo[1,5-c]pyrimidin-1-yl)piperidin-1-yl]benzonitrile] |  |  |  |  | 0.019 | 0.19 |  | > 1 | > 1
c1cc2c(ncn3nnc([C@H]4CC[C@H](CNC56CC(C5)C6)CC4)c23)[nH]1 [compound 316, N-{[trans-4-(7H-pyrrolo[3,2-e][1,2,3]triazolo[1,5-c]pyrimidin-1-yl)cyclohexyl]methyl}bicyclo[1.1.1]pentan-1-amine] |  |  |  |  | 0.013 | 0.099 |  | 0.59 | > 1
OC12CC3CC(C1)C(NC[C@H]1CC[C@H](c4nnn5cnc6[nH]ccc6c45)CC1)C(C3)C2 (stereo partly drawn) [compound 304, (1S,3R,4s,5S,7S)-4-({[trans-4-(7H-pyrrolo[3,2-e][1,2,3]triazolo[1,5-c]pyrimidin-1-yl)cyclohexyl]methyl}amino)adamantan-1-ol] |  |  |  |  | 0.049 | 0.27 |  | > 1 | > 1
CN(C)C1CN(C[C@H]2CC[C@H](c3nnn4cnc5[nH]ccc5c34)CC2)C1 [compound 423, 1-{[trans-4-(7H-pyrrolo[3,2-e][1,2,3]triazolo[1,5-c]pyrimidin-1-yl)cyclohexyl]methyl}-N,N-dimethylazetidin-3-amine] |  |  |  |  | 0.077 | 0.72 |  | > 1 | > 1
c1cc2c(ncn3nnc([C@H]4CC[C@H](CNC5CCC5)CC4)c23)[nH]1 [compound 283, N-{[trans-4-(7H-pyrrolo[3,2-e][1,2,3]triazolo[1,5-c]pyrimidin-1-yl)cyclohexyl]methyl}cyclobutanamine] |  |  |  |  | 0.014 | 0.11 |  | 0.23 | 0.9
N#CCNC(=O)C[C@H]1CC[C@H](c2nnn3cnc4[nH]ccc4c23)CC1 [443b, 2-[trans-4-(7H-Pyrrolo[3,2-e][1,2,3]triazolo[1,5-c]pyrimidin-1-yl)cyclohexyl]-N-(cyanomethyl)acetamide] |  |  |  |  | 0.01 | 0.03 |  | > 1 | 0.34
CC1CC1NC[C@H]1CC[C@H](c2nnn3cnc4[nH]ccc4c23)CC1 (stereo partly drawn) [compound 291, N-{[trans-4-(7H-pyrrolo[3,2-e][1,2,3]triazolo[1,5-c]pyrimidin-1-yl)cyclohexyl]methyl}-2-methylcyclopropanamine] |  |  |  |  | 0.0053 | 0.1 |  | 0.14 | 0.67
CN(C)[C@H]1CCN(C[C@H]2CC[C@H](c3nnn4cnc5[nH]ccc5c34)CC2)C1 [compound 181, (S)-1-{[trans-4-(7H-pyrrolo[3,2-e][1,2,3]triazolo[1,5-c]pyrimidin-1-yl)cyclohexyl]methyl}-N,N-dimethylpyrrolidin-3-amine] | 0.024 | 0.13 | > 1 | 0.49 |  |  |  |  | 
CC1(NC[C@H]2CC[C@H](c3nnn4cnc5[nH]ccc5c34)CC2)CC1 [compound 295, N-{[trans-4-(7H-pyrrolo[3,2-e][1,2,3]triazolo[1,5-c]pyrimidin-1-yl)cyclohexyl]methyl}-1-methylcyclopropanamine] |  |  |  |  | 0.0069 | 0.064 |  | 0.33 | 0.84
COc1ccc(C(O)(CN[C@H]2CC[C@H](c3nnn4cnc5[nH]ccc5c34)CC2)C(F)(F)F)cc1OC (stereo partly drawn) [390b, 3-{[trans-4-(7H-pyrrolo[3,2-e][1,2,3]triazolo[1,5-c]pyrimidin-1-yl)cyclohexyl]amino}-2-(3,4-dimethoxyphenyl)-1,1,1-trifluoropropan-2-ol] |  |  |  |  | 0.0024 | 0.089 |  | 0.36 | 0.52

The next lines start with results.

IC50 (JAK1; Table^a 154) [µM] | IC50 (JAK2; Table^a 154) [µM] | IC50 (JAK3; ATP 100 μM, Table^a 154) [µM] | IC50 (Tyk2; Table^a 154) [µM] | SMILES | IC50 (JAK1) [µM] | IC50 (JAK2) [µM] | IC50 (JAK3) [µM] | IC50 (Tyk2) [µM] | IC50 (JAK3; ATP 100 μM) [µM]
0.002 | 0.02 | 0.24 | 0.31 | Fc1cc(C(F)(F)F)ccc1CN1CCC(c2nnn3cnc4[nH]ccc4c23)CC1 [compound 157] |  |  |  |  | 
0.0034 | 0.011 | 0.31 | 0.14 | Fc1cnccc1CN1CCC(c2nnn3cnc4[nH]ccc4c23)CC1 [compound 161, 1-{1-[(3-fluoropyridin-4-yl)methyl]piperidin-4-yl}-7H-pyrrolo[3,2-e][1,2,3]triazolo[1,5-c]pyrimidine] |  |  |  |  | 
0.03 | 0.55 | > 1 | 0.31 | Fc1ccc(CN[C@H]2CC[C@@H](c3nnn4cnc5[nH]ccc5c34)CC2)cc1 [195a, cis-N-(4-fluorobenzyl)-4-(7H-pyrrolo[3,2-e][1,2,3]triazolo[1,5-c]pyrimidin-1-yl)cyclohexanamine] |  |  |  |  | 
0.0084 | 0.046 | 0.5 | 0.11 | c1ccc(CN[C@H]2CC[C@H](c3nnn4cnc5[nH]ccc5c34)CC2)cc1 [194b, trans-N-benzyl-4-(7H-pyrrolo[3,2-e][1,2,3]triazolo[1,5-c]pyrimidin-1-yl)cyclohexanamine] |  |  |  |  | 
